# Measured values reported in patent US11345666B2, “Phenyl and pyridinyl substituted imidazoles as modulators of RORγT” (Janssen Pharmaceutica NV, priority 2018, dated 2022).
# pIC50: −log10 of the molar value. Read-outs that look alike come from different tables or passages of the source. Marks after values point to notes of the source that are not given here.
# Columns and labels:
# full-length human RORγt = full-length human RORγt (Homo sapiens (Human), UniProt P51449); experiment: RORγt (full-length human) reporter assay, conditions A or B; format: cell-based; details: for pIC50: HEK293T cells, read-out: RORγt (FL) Reporter Assay A or B, IC50; for inhibition at 2 µM: 2 μM compound concentration (**); for inhibition at 6 µM: read-out: RORγt (FL) Reporter Assay A or B, % inhibition @ 6 μM, 6 μM compound concentration
# Sequence of full-length human RORγt (P51449 other isoform, or with tags, fused parts or gaps): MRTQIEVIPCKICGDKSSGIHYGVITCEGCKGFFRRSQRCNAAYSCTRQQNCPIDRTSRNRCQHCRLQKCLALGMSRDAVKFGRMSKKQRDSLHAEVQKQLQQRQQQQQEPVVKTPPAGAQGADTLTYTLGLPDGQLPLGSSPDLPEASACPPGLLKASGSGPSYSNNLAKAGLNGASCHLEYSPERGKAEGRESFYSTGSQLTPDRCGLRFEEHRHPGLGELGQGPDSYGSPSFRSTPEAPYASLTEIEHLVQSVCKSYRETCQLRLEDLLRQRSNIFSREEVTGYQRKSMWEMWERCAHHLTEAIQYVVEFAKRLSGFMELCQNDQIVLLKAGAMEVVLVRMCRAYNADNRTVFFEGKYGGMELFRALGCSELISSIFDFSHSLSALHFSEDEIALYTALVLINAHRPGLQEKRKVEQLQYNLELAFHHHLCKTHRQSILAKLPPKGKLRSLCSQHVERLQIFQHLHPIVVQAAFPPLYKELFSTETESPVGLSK
# In short: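 HEK293T cells transiently co-transfected (PEI) with GAL4-DBD–RORγt, GAL4-firefly luciferase and CMV-Renilla reporters; condition A 35,000 cells/well, 170.5 ng DNA/well; condition B 8750 cells/well, 42.6 ng DNA/well.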
# [1] = system: IL-17 production by CD4 T cells; experiment: Human Th17 assay; format: cell-based; details: 72 h, IL-17 in supernatant after 3 days
# From the text: The human Th17 assay tests the effect of RORγt modulatory compounds on IL-17 production by CD4 T cells under conditions which favor Th17 differentiation. Total CD4^+ T cells were isolated from the peripheral blood mononuclear cells (PBMC) of healthy donors using a CD4^+ T cell isolation kit II, following the manufacturer's instructions (Miltenyi Biotec). Cells were resuspended in a medium of RPMI-1640 supplemented with 10% fetal bovine serum, penicillin, streptomycin, glutamate, and β-mercaptoethanol and were added to 96-well plates at 1.5×10^5 per 100 μL per well. 50 μL of compound at titrated concentrations in DMSO were added into each well at final DMSO concentration at 0.2%. Cells were incubated for 1 hour, then 50 μL of Th17 cell differentiation medium was added to each well. The final concentrations of antibodies and cytokines (R&D Systems) in differentiation medium were: 3×10^6/mL anti-CD3/CD28 beads (prepared using human T cell activation/expansion kit, Miltenyi Biotec), 10 μg/mL anti-IL4, 10 μg/mL anti-IFNγ, 10 ng/mL IL1β, 10 ng/mL IL23, 50 ng/mL IL6, 3 ng/mL TGFβ and 20 U/mL IL2. Cells were cultured at 37° C. and 5% CO2 for 3 days. Supernatants were collected and the accumulated IL-17 in culture was measured by using MULTI-SPOT® Cytokine Plate following manufacture's instruction (Meso Scale Discovery). The plate was read using Sector Imager 6000, and IL-17 concentration was extrapolated from the standard curve. The IC50s were determined by GraphPad.
# [2] = read-out: RORγt (FL) Reporter Assay A or B, % inhibition
# [3] = 0.22 μM compound concentration (******), read-out: RORγt (FL) Reporter Assay A or B, % inhibition
# [4] = 0.67 μM compound concentration (****), read-out: RORγt (FL) Reporter Assay A or B, % inhibition
pIC50 (full-length human RORγt),pIC50 [1],SMILES,other results
7.92,7.07,"CCc1nc(C(=O)NC[C@H]2CC[C@H](S(C)(=O)=O)CC2)c(Cl)n1-c1ncc(CC(C)(C)C(F)(F)F)cc1OC(F)F [Example 2, 5-Chloro-1-(3-(difluoromethoxy)-5-(3,3,3-trifluoro-2,2-dimethylpropyl)pyridin-2-yl)-2-ethyl-N-((4-(methylsulfonyl)cyclohexyl)methyl)-1H-imidazole-4-carboxamide]","inhibition at 1 µM (full-length human RORγt; 1 μM compound concentration (***), read-out: RORγt (FL) Reporter Assay A or B, % inhibition): 84%"
7.44,7.51,"CCc1nc(C(=O)NC[C@H]2CC[C@H](S(C)(=O)=O)CC2)c(Cl)n1-c1ccc(N[C@H](C)C(F)(F)F)cc1OC [Example 3, 5-Chloro-2-ethyl-1-(2-methoxy-4-(((R)-1,1,1-trifluoropropan-2-yl)amino)phenyl)-N-(((1r,4R)-4-(methylsulfonyl)cyclohexyl)methyl)-1H-imidazole-4-carboxamide]",inhibition at 2 µM (full-length human RORγt; [2]): 101%
6.80,6.66,"CCc1nc(C(=O)NC[C@H]2CC[C@H](S(C)(=O)=O)CC2)c(F)n1-c1ccc(N[C@H](C)C(F)(F)F)cc1OC [Example 12, 2-Ethyl-5-fluoro-1-(2-methoxy-4-(((R)-1,1,1-trifluoropropan-2-yl)amino)phenyl)-N-(((1r,4R)-4-(methylsulfonyl)cyclohexyl)methyl)-1H-imidazole-4-carboxamide]",inhibition at 6 µM (full-length human RORγt): 109%
7.82,7.38,"CCc1nc(C(=O)NC[C@H]2CC[C@H](S(C)(=O)=O)CC2)c(Cl)n1-c1ccc(CCC(F)(F)F)cc1F [Example 22, 5-Chloro-2-ethyl-1-(2-fluoro-4-(3,3,3-trifluoropropyl)phenyl)-N-(((1r,4r)-4-(methylsulfonyl)cyclohexyl)methyl)-1H-imidazole-4-carboxamide]",inhibition at 0.22 µM (full-length human RORγt; [3]): 38%
7.74,7.89,"[2H]C([2H])([2H])Oc1cc(CC(C)(C)C(F)(F)F)ccc1-n1c(CC)nc(C(=O)NC[C@H]2CC[C@H](S(C)(=O)=O)CC2)c1C#N [Example 27, 5-Cyano-2-ethyl-1-(2-(methoxy-d3)-4-(3,3,3-trifluoro-2,2-dimethylpropyl)phenyl)-N-(((1r,4r)-4-(methylsulfonyl)cyclohexyl)methyl)-1H-imidazole-4-carboxamide]",inhibition at 0.67 µM (full-length human RORγt; [4]): 97%
7.89,8.10,"CCc1nc(C(=O)NC[C@H]2CC[C@H](S(C)(=O)=O)CC2)c(C#N)n1-c1ccc(CC(C)(C)C(F)(F)F)cc1OC(F)F [Example 36, 5-Cyano-1-(2-(difluoromethoxy)-4-(3,3,3-trifluoro-2,2-dimethylpropyl)phenyl)-2-ethyl-N-(((1r,4r)-4-(methylsulfonyl)cyclohexyl)methyl)-1H-imidazole-4-carboxamide]",inhibition at 2 µM (full-length human RORγt; [2]): 101%
6.92,< 5.22,"CCc1nc(C(=O)NC[C@]2(O)CC[C@@H](S(C)(=O)=O)CC2)c(Cl)n1-c1c(F)cc(CC(C)C)cc1F [Example 83, 5-Chloro-1-(2,6-difluoro-4-isobutylphenyl)-2-ethyl-N-(((1s,4s)-1-hydroxy-4-(methylsulfonyl)cyclohexyl)methyl)-1H-imidazole-4-carboxamide]",inhibition at 2 µM (full-length human RORγt; [2]): 23%
8.17,7.24,"CCc1nc(C(=O)NC[C@]2(O)CC[C@@H](S(C)(=O)=O)CC2)c(Cl)n1-c1ccc(CC(C(F)(F)F)C(F)(F)F)cc1F [Example 100, 5-Chloro-2-ethyl-1-(2-fluoro-4-(3,3,3-trifluoro-2-(trifluoromethyl)propyl)phenyl)-N-(((1s,4s)-1-hydroxy-4-(methylsulfonyl)cyclohexyl)methyl)-1H-imidazole-4-carboxamide]",inhibition at 0.22 µM (full-length human RORγt; [3]): 100%
7.66,7.10,"CCc1nc(C(=O)NC[C@]2(O)CC[C@@H](S(C)(=O)=O)CC2)c(C)n1-c1ccc(CC(C(F)(F)F)C(F)(F)F)cc1F [Example 109, 2-Ethyl-1-(2-fluoro-4-(3,3,3-trifluoro-2-(trifluoromethyl)propyl)phenyl)-N-(((1s,4s)-1-hydroxy-4-(methylsulfonyl)cyclohexyl)methyl)-5-methyl-1H-imidazole-4-carboxamide]",inhibition at 0.67 µM (full-length human RORγt; [4]): 97%
7.07,7.16,"CCc1nc(C(=O)NC[C@]2(O)CC[C@@H](S(C)(=O)=O)CC2)c(C#N)n1-c1ccc(CC(C)(C)C(F)(F)F)cc1OC(F)(F)F [Example 111, 5-Cyano-2-ethyl-N-(((1s,4s)-1-hydroxy-4-(methylsulfonyl)cyclohexyl)methyl)-1-(4-(3,3,3-trifluoro-2,2-dimethylpropyl)-2-(trifluoromethoxy)phenyl)-1H-imidazole-4-carboxamide]",inhibition at 6 µM (full-length human RORγt): 99%

SMILES,pIC50 (full-length human RORγt),pIC50 [1],other results
"CCc1nc(C(=O)NC[C@H]2CC[C@H](S(C)(=O)=O)CC2)c(Cl)n1-c1ccc(CC(C)C(F)(F)F)cc1OC (single isomer, unassigned) [Example 6, 5-Chloro-2-ethyl-1-((1S*)-2-methoxy-4-(3,3,3-trifluoro-2-methylpropyl)phenyl)-N-(((1r,4S)-4-(methylsulfonyl)cyclohexyl)methyl)-1H-imidazole-4-carboxamide]",8.22,8.70,"RORγt (FL) Reporter Assay A or B, % inhibition (full-length human RORγt; 0.67 μM compound concentration (****)): 99**** %"
"CCc1nc(C(=O)NC[C@H]2CC[C@H](S(C)(=O)=O)CC2)c(C)n1-c1ccc(CC(C)C(F)(F)F)cc1OC (single isomer, unassigned) [Example 7]",7.92,8.15,"inhibition at 0.22 µM (full-length human RORγt; read-out: RORγt (FL) Reporter Assay A or B, % inhibition, 0.22 μM compound concentration (******)): 91%"
